According to article PMC5473904, “Epigenetic and antitumor effects of platinum(IV)-octanoato conjugates” (Scientific Reports, 2017):

System: Lewis lung carcinoma (LLC)
Test: In vivo antitumor activity in Lewis lung carcinoma
Conditions: LLC in C57BL mice; for Average tumor weight (mean ± SD): 20 mg kg^−1 daily orally day 7–14, day 15; for Inhibition of tumor growth: 20 mg kg^−1 daily orally day 7–14, day 15, referred to control animals
Method: Xenograft LLC tumors were grown in C57BL mice that were subsequently treated with […] of either Pt(IV) complex. Pt(IV) prodrugs were administered by oral gavage by taking advantage of their excellent stability, enabling in vivo oral formulation making platinum therapy safer lessening side effects and partially overcoming resistance to platinum(II) drugs, [35]. The schedule of Pt(IV) prodrug administration in vivo was initially determined by assessing the total dose that could be injected without undue toxicity in nontumor-bearing C57BL mice. From day 7 after tumor inoculation, when tumors became visible, tumor-bearing mice received daily doses of the Pt(IV) derivatives (20 mg kg^−1, by oral gavage).
The LLC cell line was purchased from ECACC, United Kingdom. The LLC cell line was maintained in DMEM (Euroclone) supplemented with 10% heat-inactivated fetal bovine serum (FBS; Euroclone), 10 mM L-glutamine, 100 U mL^−1 penicillin, and 100 μg mL^−1 streptomycin in a 5% CO2 air incubator at 37 °C. The LLC was implanted intramuscularly (im) as a 2 × 10^6 cell inoculum into the right hind leg of 8-week old male and female C57BL mice (24 ± 3 g body weight). […] At day 15, animals were sacrificed, the legs were amputated at the proximal end of the femur, and the inhibition of tumor growth was determined according to the difference in weight of the tumor-bearing leg, and the healthy leg of the animals expressed as a percentage referred to the control animals. Body weight was measured every two days and was taken as a parameter for systemic toxicity. All the values are the means ± SD of not less than three measurements.

| Compound | Average tumor weight (mean ± SD) [g] | Inhibition of tumor growth [%] |
| --- | --- | --- |
| CCCC(=O)[O][Pt]([NH2])([NH2])([Cl])([Cl])[O]C(=O)CCC [Pt(IV)diBA, cis, cis, trans-[Pt(IV)(NH3)2Cl2(BA)2]] | 0.109 ± 0.05 | 80 |
| CCCCCC(=O)[O][Pt]([NH2])([NH2])([Cl])([Cl])[O]C(=O)CCCCC [Pt(IV)diHA, cis, cis, trans-[Pt(IV)(NH3)2Cl2(HA)2]] | 0.088 ± 0.06 | 84 |
